Test system: PC-3 human hormone-independent prostate cancer
Test: Effect of treatment with GH-RH antagonists on PC-3 human prostate cancer xenografts in nude mice
Assay type: in vivo
Conditions: PC-3 xenografts s.c. in male nude mice, 2 ug/day s.c., single daily injections for 28
Protocol: Male nude mice were implanted s.c. with 3 mm3 pieces of PC-3 human hormone-independent prostate cancer tissue on both flanks. When tumors reached a volume of approximately 50 mm3, the mice were divided into 14 experimental groups with 8 to 10 animals in each group and received single daily injections for 28 as follows: 1. Control (vehicle solution); 2. P-12211 (2 μg/day s.c.); 3. P-12307 (2 μg/day s.c.); 4. P-12317 (2 μg/day s.c.); 5. P-12408 (2 μg/day s.c.); 6. P-12409 (2 μg/day s.c.); 7. P-12457 (2 μg/day s.c.); 8. P-12473 (2 μg/day s.c.); 9. P-12479 (2 μg/day s.c.); 10. P-12600 (2 μg/day s.c.); 11. P-12601 (2 μg/day s.c.); 12. P-12602 (2 μg/day s.c.); 13. P-12603 (2 μg/day s.c.); and 14. P-12610 (2 μg/day s.c.).
Effect of Treatment with GH-RH Antagonists on PC-3 Human Prostate Cancer Xenografts in Nude Mice

## [PhAc^0-Tyr^1, D-Arg^2, Cpa^6, Ala^8, Har^9, Fpa5^10, His^11, Orn^12, Abu^15, His^20, Orn^21, Nle^27, D-Arg^28, Har^29, Ada^30]hGH-RH(1-30)NH2 [Peptide P-12610]
Control 2137.62
  Tumor Growth after 4 weeks (%): 474.98%
Versus control
  Tumor growth inhibition after 4 weeks (%): 77.78%

Reference: patent publication US20100092539A1, “Fluorinated GHRH Antagonists” (priority 2008, published 2010)
